Source: PubChem BioAssay AID2060894 (Molecular Pharmacology Branch, DTP, NCI, 2025)

System: K12877-001-R-J1-PDC complex spheroid viability
Experiment: Anticancer human tumor K12877-001-R-J1-PDC patient-derived lung adenocarcinoma cell line growth inhibition [RAS]
Details: for IC50: curve of first compound; for viability, T/C: stronger effect = lower value
Outline: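 Tumour cells grown as complex spheroids with HUVEC endothelial cells and mesenchymal stem cells, treated with RAS pathway inhibitor combinations. Each agent spans half-log steps from near clinical Cmax, or 10 microM where Cmax is unknown.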

[1] = second compound 0.000949 µM, first compound 0.0316 µM
[2] = second compound 0.000949 µM, first compound 0.1 µM
[3] = second compound 0.000949 µM, first compound 0.316 µM
[4] = second compound 0.000949 µM, first compound 1 µM
[5] = second compound 0.003 µM, first compound 0.0316 µM
[6] = second compound 0.003 µM, first compound 0.1 µM
[7] = second compound 0.003 µM, first compound 0.316 µM
[8] = second compound 0.003 µM, first compound 1 µM
[9] = second compound 0.00949 µM, first compound 0.0316 µM
[10] = second compound 0.00949 µM, first compound 0.1 µM
[11] = second compound 0.00949 µM, first compound 0.316 µM
[12] = second compound 0.00949 µM, first compound 1 µM
[13] = second compound 0.03 µM, first compound 0.0316 µM
[14] = second compound 0.03 µM, first compound 0.1 µM
[15] = second compound 0.03 µM, first compound 0.316 µM
[16] = second compound 0.03 µM, first compound 1 µM
[17] = second compound 0.0949 µM, first compound 0.0316 µM
[18] = second compound 0.0949 µM, first compound 0.1 µM
[19] = second compound 0.0949 µM, first compound 0.316 µM
[20] = second compound 0.0949 µM, first compound 1 µM
[21] = second compound 0.3 µM, first compound 0.0316 µM
[22] = second compound 0.3 µM, first compound 0.1 µM
[23] = second compound 0.3 µM, first compound 0.316 µM
[24] = second compound 0.3 µM, first compound 1 µM
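Also: spheroids exposed to agents for one week before readout.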
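For viability, T/C in this document: tumour cells co-cultured with HUVEC and mesenchymal stem cells in spheroids.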

In the case of `CCN1CCN(Cc2ccc(Nc3ncc(F)c(-c4cc(F)c5nc(C)n(C(C)C)c5c4)n3)nc2)CC1` + CCn1c(-c2cc(N3CCN(C)CC3)cnc2C(C)OC)c2c3cc(ccc31)-c1csc(n1)CC(NC(=O)C1CC1C)C(=O)N1CCCC(N1)C(=O)OCC(C)(C)C2, the IC50 (second compound 0.000949 µM) is reported as > 1000 nM, the IC50 (second compound 0.003 µM) is reported as 803 nM and the IC50 (second compound 0.00949 µM) is reported as 578 nM. It also gave an IC50 (second compound 0.03 µM) of 469 nM, an IC50 (second compound 0.0949 µM) of 516 nM and an IC50 (second compound 0.3 µM) of 376 nM. For the same compound, the viability, T/C (second compound 0.000949 µM, first compound 0.00316 µM) was 79.9%, the viability, T/C (second compound 0.000949 µM, first compound 0.01 µM) was 84.1% and the viability, T/C [1] was 85%. The viability, T/C [2] was 92.5%, the viability, T/C [3] was 86.8% and the viability, T/C [4] was 73.2%. It also gave a viability, T/C (second compound 0.003 µM, first compound 0.00316 µM) of 73.7%, a viability, T/C (second compound 0.003 µM, first compound 0.01 µM) of 72.1% and a viability, T/C [5] of 72.7%. The viability, T/C [6] was 69.3%, the viability, T/C [7] was 70.2% and the viability, T/C [8] was 45.3%. It also gave a viability, T/C (second compound 0.00949 µM, first compound 0.00316 µM) of 61.7%, a viability, T/C (second compound 0.00949 µM, first compound 0.01 µM) of 61.3% and a viability, T/C [9] of 68.9%. For the same compound, the viability, T/C [10] was 70.8%, the viability, T/C [11] was 72% and the viability, T/C [12] was 34.6%. For the same compound, the viability, T/C (second compound 0.03 µM, first compound 0.00316 µM) was 81.7%, the viability, T/C (second compound 0.03 µM, first compound 0.01 µM) was 86.8% and the viability, T/C [13] was 74.3%. For the same compound, the viability, T/C [14] was 89.8%, the viability, T/C [15] was 61.5% and the viability, T/C [16] was 28.1%. For the same compound, the viability, T/C (second compound 0.0949 µM, first compound 0.00316 µM) was 106%, the viability, T/C (second compound 0.0949 µM, first compound 0.01 µM) was 97.9% and the viability, T/C [17] was 99.6%. The viability, T/C [18] was 86.5%, the viability, T/C [19] was 63% and the viability, T/C [20] was 32.3%. The viability, T/C (second compound 0.3 µM, first compound 0.00316 µM) was 97%, the viability, T/C (second compound 0.3 µM, first compound 0.01 µM) was 86.2% and the viability, T/C [21] was 86.5%. It also gave a viability, T/C [22] of 76.2%, a viability, T/C [23] of 53.1% and a viability, T/C [24] of 26.1%.

`C[C@@H](NC(=O)c1ncnc(N)c1Cl)c1ncc(C(=O)Nc2cc(C(F)(F)F)c(Cl)cn2)s1` + CCn1c(-c2cc(N3CCN(C)CC3)cnc2C(C)OC)c2c3cc(ccc31)-c1csc(n1)CC(NC(=O)C1CC1C)C(=O)N1CCCC(N1)C(=O)OCC(C)(C)C2 was tested, and the IC50 (second compound 0.000949 µM) was > 10000 nM, the IC50 (second compound 0.003 µM) was > 10000 nM and the IC50 (second compound 0.00949 µM) was > 10000 nM. For the same compound, the IC50 (second compound 0.03 µM) was > 10000 nM, the IC50 (second compound 0.0949 µM) was > 10000 nM and the IC50 (second compound 0.3 µM) was > 10000 nM. For the same compound, the viability, T/C [1] was 85.3%, the viability, T/C [2] was 85.3% and the viability, T/C [3] was 81.8%. For the same compound, the viability, T/C [4] was 84.3%, the viability, T/C (second compound 0.000949 µM, first compound 3.16 µM) was 89.9% and the viability, T/C (second compound 0.000949 µM, first compound 10 µM) was 75.3%. The viability, T/C [5] was 72.5%, the viability, T/C [6] was 78.3% and the viability, T/C [7] was 70.8%. It also gave a viability, T/C [8] of 83.6%, a viability, T/C (second compound 0.003 µM, first compound 3.16 µM) of 77.2% and a viability, T/C (second compound 0.003 µM, first compound 10 µM) of 83.2%. For the same compound, the viability, T/C [9] was 66.4%, the viability, T/C [10] was 62.7% and the viability, T/C [11] was 67.8%. The viability, T/C [12] was 69.5%, the viability, T/C (second compound 0.00949 µM, first compound 3.16 µM) was 70.1% and the viability, T/C (second compound 0.00949 µM, first compound 10 µM) was 68.8%. For the same compound, the viability, T/C [13] was 62.2%, the viability, T/C [14] was 58.3% and the viability, T/C [15] was 60%. The viability, T/C [16] was 68.3%, the viability, T/C (second compound 0.03 µM, first compound 3.16 µM) was 66.3% and the viability, T/C (second compound 0.03 µM, first compound 10 µM) was 112%. For the same compound, the viability, T/C [17] was 101%, the viability, T/C [18] was 89.7% and the viability, T/C [19] was 97.8%. It also gave a viability, T/C [20] of 106%, a viability, T/C (second compound 0.0949 µM, first compound 3.16 µM) of 129% and a viability, T/C (second compound 0.0949 µM, first compound 10 µM) of 121%. The viability, T/C [21] was 100%, the viability, T/C [22] was 100% and the viability, T/C [23] was 103%. For the same compound, the viability, T/C [24] was 111%, the viability, T/C (second compound 0.3 µM, first compound 3.16 µM) was 97.8% and the viability, T/C (second compound 0.3 µM, first compound 10 µM) was 111%.
